In experiment [1] the test system is re-uptake of ^3 H-dopamine. Nature of the experiment: Re-uptake of 3H-dopamine in vitro (synaptosomes, P2 fraction of whole brain). The note with it: Experiment I, rat brain synaptosomes, 37° C., 20 minutes. It counts as biochemical, Std: Wistar strain male rat. The method, then:
Effect of the test samples on the re-uptake of ^3 H-dopamine in vitro
P2 fraction was prepared from the whole brain of Std: Wistar strain male rat. […] The obtained mixture was incubated at 37° C. for 20 minutes and then subjected to the suction filtration with Whatman GF/B filter paper.
The obtained filter paper was put in a vial containing 10 ml of toluene type scintillator and its radioactivity was measured by means of liquid scintillation counter. The amount of the specific re-uptake of ^3 H-dopamine was obtained by subtracting the amount of re-uptake at 0° C. as blank.

The test system of experiment [2] is inhibition of conditioned avoidance response induced by reserpine in rats. Briefly: Inhibition of conditioned avoidance response induced by reserpine in rats. It counts as in vivo, Std-Wistar male rats. The protocol: Effect of the test samples on the inhibition of conditioned avoidance response induced by reserpine in rats
Std-Wistar male rats (8 to 9 week age) weighing of 270 to 300 g were fed under the conditions of 23±2° C., 60±10% R.H. and artificial lighting from 7 AM to 7 PM for a week, and then subjected to the test.
The test was carried out by using a shuttle box. The shuttle box used herein was a rectangular box, which was equipped with a buzzer for conditioned stimulus at the upper part and grids of 2 mm in diameter, for non-conditioned stimulus, at intervals of 1 cm on the floor, and divided into two equal sized compartments by a hurdle of 5 cm in height.
The schedule for inducing the conditioned avoidance response was controlled by a computer, and all the observed results of avoidance or escape response were recorded automatically.
The avoidance condition was carried out as follows:
After the conditioned stimulus of the buzzer with sound signal for 5 seconds, the non-conditioned stimulus of the foot shock was given for 5 seconds to rats. Each stimulus was stopped immediately, if the rat jumped over the hurdle to the other compartment during the conditioned or non-conditioned stimulus.
The above-mentioned rats were put on the trials for 25 times. Then the rats were given reserpine (1 mg/kg, intraperitoneally). The rats were tested for 15 times at the time of 18 to 20 hours after the reserpine administration, and then they were divided into several groups ([…]).
The test sample was dissolved in distilled water and administered orally to each group at 24 to 26 hours after the reserpine administration. For reference, distilled water as control sample, and amitriptyline and amantadine as test drugs were used.
At one hour after the test sample administration, the rats were put on the trials for 25 times and the conditioned avoidance responce was compared between the control group (distilled water administration), the test compound-administered group and the test drug-administered groups.

For experiment [3], the system named is circling behavior in rats with unilateral substantia nigra lesions. Nature of the experiment: Circling behavior in rats with unilateral substantia nigra lesions. It counts as in vivo, Std: Wistar male rats. The following applies: 2 hours after, control 0.1 ± 0.4, **p < 0.01. The method, then: Effect of the test samples on circling behavior in rats with unilateral substantia nigra lesions
Std: Wistar male rats (8 heads/group) were used. The rat with unilateral substantia nigra lesions was made by injecting 8 μg/4 μl of 6-hydroxydopamine to the right side of substantia nigra.
The test sample was administered orally to the rat. At 2 hours later, the number of circling behavior per 10 minutes was counted.
Amantadine was used as the reference drug and distilled water was used as control sample.

Molecules are shown by their SMILES.

The IC50 is the midpoint of a concentration-inhibition curve. In experiment [1], `CC(C)CC(N(C)C)C1(c2ccc(Cl)cc2)CCC1.Cl` (stereo not drawn) [Test compound, N,N-dimethyl-1-[1-(4-chlorophenyl)cyclobutyl]3-methylbutylamine hydrochloride] displayed an IC50 of 2 µM. The “Conditioned avoidance response 1 hour after administration of the test sample” value in experiment [2] (10 mg/kg oral, reserpine 1 mg/kg, control 2) is reported as 82%. For the same compound, in experiment [2] (baseline before test sample, 10 mg/kg group), the “Conditioned avoidance response before administration of reserpine” value is on record as 90%. Besides, the “Conditioned avoidance response 18 to 20 hours after administration of reserpine” value in experiment [2] (reserpine 1 mg/kg i.p., before test sample, 10 mg/kg group) was 2%. Moreover, the “Number of circling behavior per 10 min.” value was found to be 3.0 ± 2.9 per 10 min in experiment [3] (3 mg/kg oral) and 5.1 ± 4.4 per 10 min in experiment [3] (10 mg/kg oral).

The values are drawn from patent publication US4939175A, “Use of N,N-dimethyl-1-[1-(4-chlorophenyl)cyclobutyl]-3-methylbutylamine” (priority 1988, dated 1990).
